Literature values in article PMC10694761 (Cell Reports Medicine, 2023).

Experiments:
[1] = humans
[2] = rats
[3] = micromolar concentrations

- t1/2, serum [1]: ~13 h
- half-life of absorption from the s.c. space (t1/2, s.c.) [2]: ~9.6 min
- half-life of elimination from the systemic circulation (t1/2, serum) [2]: ~4.01 h
- self-association state [3]: heptameric structures
Substance: Liraglutide
